Experimental data from US20240309003A1, “HETEROCYCLIC COMPOUNDS AS TRIGGERING RECEPTOR EXPRESSED ON MYELOID CELLS 2 AGONISTS AND METHODS OF USE” (Vigil Neuroscience, Inc., priority 2021, published 2024).

Target: T1, human TREM2 (Homo sapiens, UniProt Q9NZC2)
T1 construct: expressed in transfected cells; host or cells: HEK293T
Test: TREM2 agonist potency by cellular phosphorylation of Syk (AlphaLisa) in HEK293T-hTREM2 cells
Assay type: cell-based
Settings: HEK293 cells expressing human TREM2 and DAP12, Table D
In short: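 Agonist EC50 from a variable-slope four-parameter fit of % activation, based on AlphaLisa phospho-Syk levels in lysates. Cells: HEK293T-hTREM2 (with DAP12), treated 45 min at room temperature with compound in assay buffer.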

T1 sequence (Q9NZC2 19-230): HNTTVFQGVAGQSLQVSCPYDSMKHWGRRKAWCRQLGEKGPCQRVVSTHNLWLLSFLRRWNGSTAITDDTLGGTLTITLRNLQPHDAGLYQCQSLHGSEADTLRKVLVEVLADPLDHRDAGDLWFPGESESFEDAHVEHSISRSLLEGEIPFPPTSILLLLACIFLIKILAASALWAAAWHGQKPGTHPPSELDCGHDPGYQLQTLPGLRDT
T1 sequence (O43914 22-113 partner): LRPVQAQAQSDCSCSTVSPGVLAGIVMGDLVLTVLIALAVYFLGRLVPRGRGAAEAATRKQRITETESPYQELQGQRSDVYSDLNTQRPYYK

EC50	SMILES
< 50 nM	[2H]C1([2H])C[C@H](c2nc(-c3ccc(Cl)cc3F)c3nc(C)c(C)nc3n2)C[C@H](c2cnn(C3CC3)c2)O1 [Example 188, 4-(4-chloro-2-fluorophenyl)-2-((2R,4S)-2-(1-cyclopropyl-1H-pyrazol-4-yl)tetrahydro-2H-pyran-4-yl-6,6-d2)-6,7-dimethylpteridine]
< 50 nM	Cc1cc([C@H]2C[C@@H](c3nc(-c4ccc(Cl)c(F)c4F)c4ncc(C)nc4n3)CCO2)ccn1 (racemic) [Example 89, 4-(4-chloro-2,3-difluorophenyl)-7-methyl-2-(2-(2-methylpyridin-4-yl)tetrahydro-2H-pyran-4-yl)pteridine]
50 to 500 nM	COc1cccc([C@H]2C[C@@H](c3nc(C45CC(C(F)(F)F)(C4)C5)c4nc(C)c(C)nc4n3)CCO2)n1 [Example 146, 2-[ (2R,4S)-2-(6-methoxy-2-pyridyl)tetrahydropyran-4-yl] - 6,7-dimethyl-4-[3-(trifluoromethyl)-1-bicyclo[1.1.1]pentanyl]pteridine]
50 to 500 nM	Cc1nc2nc([C@H]3CCO[C@@H](c4cnn(C5CC5)n4)C3)nc(-c3ccc(F)cc3F)c2nc1C [Example 155, 2-((2R,4S)-2-(2-cyclopropyl-2H-1,2,3-triazol-4-yl)tetrahydro-2H-pyran-4-yl)-4-(2,4-difluorophenyl)-6,7-dimethylpteridine]
50 to 500 nM	COc1ccc([C@H]2C[C@@H](c3nc(-c4ccc(F)cc4F)c4nc(C)c(C)nc4n3)CCO2)cn1 [Example 163, 4-(2,4-difluorophenyl)-2-((2R,4S)-2-(6-methoxypyridin-3-yl)tetrahydro-2H-pyran-4-yl)-6,7-dimethylpteridine]
50 to 500 nM	COc1ccc(-c2nc([C@H]3CCO[C@@H](c4cnn(C5CC5)c4)C3)nc3nc(C)c(C)nc23)cn1 [Example 239, 2-((2R,4S)-2-(1-cyclopropyl-1H-pyrazol-4-yl)tetrahydro-2H-pyran-4-yl)-4-(6-methoxypyridin-3-yl)-6,7-dimethylpteridine]
< 50 nM	Cc1nc2nc([C@H]3CCO[C@@H](c4cnn(C5CC5)c4)C3)nc(-c3ccc(C(F)(F)F)cc3)c2nc1C [Example 139]
< 50 nM	Cc1nc2nc(N3CCO[C@@H](c4cc[nH]c(=O)c4)C3)nc(-c3ccc(C(F)(F)F)nc3)c2nc1C [Example 195, (S)-4-(4-(6,7-dimethyl-4-(6-(trifluoromethyl)pyridin-3-yl)pteridin-2-yl)morpholin-2-yl)pyridin-2(1H)-one]
50 to 500 nM	Cc1nc2nc([C@@H]3CCO[C@H](c4cnn(C5CCC5)c4)C3)nc(-c3ccc(F)cc3F)c2nc1C [Example 147, 2-((2S,4R)-2-(1-cyclobutyl-1H-pyrazol-4-yl)tetrahydro-2H-pyran-4-yl)-4-(2,4-difluorophenyl)-6,7-dimethylpteridine]
50 to 500 nM	[2H]C([2H])([2H])c1ccc(-c2nc([C@H]3CCO[C@@H](c4cnn(C([2H])([2H])[2H])c4)C3)nc3nc(C([2H])([2H])[2H])c(C([2H])([2H])[2H])nc23)cc1 [Example 175, 6,7-bis(methyl-d3)-2-((2R,4S)-2-(1-(methyl-d3)-1H-pyrazol-4-yl)tetrahydro-2H-pyran-4-yl)-4-(4-(methyl-d3)phenyl)pteridine]
< 50 nM	[2H]C([2H])([2H])c1nc2nc([C@H]3CCO[C@@H](c4cnn(C5CC5)c4)C3)nc(-c3ccc(Cl)cc3F)c2nc1C([2H])([2H])[2H] [Example 181, 4-(4-chloro-2-fluorophenyl)-2-((2R,4S)-2-(1-cyclopropyl-1H-pyrazol-4-yl)tetrahydro-2H-pyran-4-yl)-6,7-bis(methyl-d3)pteridine]
500 to 3000 nM	Cc1nc2nc([C@@H]3CCO[C@H](c4cnn(CCF)c4)C3)nc(-c3ccc(F)cc3F)c2nc1C [Example 149, 4-(2,4-difluorophenyl)-2-((2S,4R)-2-(1-(2-fluoroethyl)-1H-pyrazol-4-yl)tetrahydro-2H-pyran-4-yl)-6,7-dimethylpteridine]
< 50 nM	Cc1cc2c(-c3ccc(Cl)cc3F)nc([C@@H]3CCO[C@@H](c4cnn(C5CC5)c4)C3)nc2nc1C [Example 216, 4-(4-chloro-2-fluorophenyl)-2-((2R,4R)-2-(1-cyclopropyl-1H-pyrazol-4-yl)tetrahydro-2H-pyran-4-yl)-6,7-dimethylpyrido[2,3-d]pyrimidine]
< 50 nM	Cc1ccc2c(-c3cc(F)c(Cl)cc3F)nc([C@H]3CCO[C@@H](c4cnn(C5CC5)c4)C3)nc2n1 [Example 219, 4-(4-chloro-2,5-difluorophenyl)-2-((2R,4S)-2-(1-cyclopropyl-1H-pyrazol-4-yl)tetrahydro-2H-pyran-4-yl)-7-methylpyrido[2,3-d]pyrimidine]
< 50 nM	Cc1nc2nc([C@H]3C[C@@H](C)O[C@@H](c4cnn(C5CC5)c4)C3)nc(-c3cc(F)c(F)cc3F)c2nc1C [Example 157, 2-((2R,4S,6R)-2-(1-cyclopropyl-1H-pyrazol-4-yl)-6-methyltetrahydro-2H-pyran-4-yl)-6,7-dimethyl-4-(2,4,5-trifluorophenyl)pteridine]
500 to 3000 nM	Cc1cnc2c(-c3ccc(F)cc3F)nc(N3C[C@@H](c4cnn(C5CC5)c4)O[C@@H](C)C3)cc2n1 [Example 208, (2R,6S)-2-(1-cyclopropyl-1H-pyrazol-4-yl)-4-(5-(2,4-difluorophenyl)-2-methylpyrido[3,4-b]pyrazin-7-yl)-6-methylmorpholine]
3000 to 100000 nM	[2H][C@@]1(c2cnn(C3CC3)c2)C[C@H](c2nc(-c3ccc(F)cc3F)c3nc(C)c(C)nc3n2)CCO1 (single isomer, unassigned) [Example 183]
< 50 nM	Cc1nc2cc([C@H]3CCO[C@@H](c4cnn(C5CC5)c4)C3)nc(-c3ccc(F)cc3F)c2nc1C [Example 210, 7-((2R,4S)-2-(1-cyclopropyl-1H-pyrazol-4-yl)tetrahydro-2H-pyran-4-yl)-5-(2,4-difluorophenyl)-2,3-dimethylpyrido[3,4-b]pyrazine]
500 to 3000 nM	Cc1cc([C@@H]2C[C@H](c3cc(-c4ccc(Cl)cc4F)c4cc(C)c(C)nc4n3)CCO2)ccn1 [Example 185, 5-(4-chloro-2-fluorophenyl)-2,3-dimethyl-7-((2S,4R)-2-(2-methylpyridin-4-yl)tetrahydro-2H-pyran-4-yl)-1,8-naphthyridine]

Same assay, conditions: HEK293 cells expressing human TREM2 and DAP12, Table D-2

EC50	SMILES
< 50 nM	COCn1cc([C@H]2CN(c3nc(-c4ccc(Cl)cc4F)c4nc(C)c(C)nc4n3)C[C@@H](C)O2)cn1 [Example I-1446, (2S,6R)-4-[4-(4-chloro-2-fluoro-phenyl)-6,7-dimethyl-pteridin-2-yl]-2-[1-(methoxymethyl)pyrazol-4-yl]-6-methyl-morpholine]
50 to 500 nM	COCCn1cc([C@H]2C[C@@H](c3nc(-c4ccc(F)cc4F)c4nc(C)c(C)nc4n3)CCO2)cn1 (stereo in doubt) [Example I-1658, 4-(2,4-difluorophenyl)-2-(2-(1-(2-methoxyethyl)-1H-pyrazol-4-yl)tetrahydro-2H-pyran-4-yl)-6,7-dimethylpteridine]
< 50 nM	Cc1nc2nc(N3C[C@@H](C4CC4)O[C@@H](c4cnn(C)c4)C3)nc(-c3ccc(F)cc3F)c2nc1C [Example I-1673, (2R,6S)-2-cyclopropyl-4-[4-(2,4-difluorophenyl)-6,7-dimethyl-pteridin-2-yl]-6-(1-methylpyrazol-4-yl)morpholine]
< 50 nM	Cc1nc2nc(N3C[C@@H](C4CC4)O[C@@H](c4cnn(C(F)F)c4)C3)nc(-c3ccc(C(F)(F)F)cc3F)c2nc1C [Example I-1711, (2R,6S)-2-cyclopropyl-6-[1-(difluoromethyl)pyrazol-4-yl]-4-[4-[2-fluoro-4-(trifluoromethyl)phenyl]-6,7-dimethyl-pteridin-2-yl]morpholine]
50 to 500 nM	Cc1nc2nc(N3CCO[C@H](c4cnn5c4CCC5)C3)nc(-c3ccc(F)cc3F)c2nc1C [Example I-1529, (2R)-4-[4-(2,4-difluorophenyl)-6,7-dimethyl-pteridin-2-yl]-2-(5,6-dihydro-4H-pyrrolo[1,2-b]pyrazol-3-yl)morpholine]
< 50 nM	Cc1nc2cc([C@H]3CCO[C@@H](c4cnn(C5CC5)c4)C3)nc(-c3ccc(F)cc3F)c2nc1CF [Example I-1456, 7-((2R,4S)-2-(1-cyclopropyl-1H-pyrazol-4-yl)tetrahydro-2H-pyran-4-yl)-5-(2,4-difluorophenyl)-3-(fluoromethyl)-2-methylpyrido[3,4-b]pyrazine]
< 50 nM	Cc1nc2nc([C@H]3CCO[C@@H](c4cnn(C5CC5)c4)C3)nc(-c3c(F)cc(C(F)(F)F)cc3F)c2nc1C (stereo in doubt) [Example I-1391, 4-[2,6-difluoro-4-(trifluoromethyl)phenyl]-6,7-dimethyl-2-[(2R,4S)-2-(1-cyclopropylpyrazol-4-yl)tetrahydropyran-4-yl]pteridine]
< 50 nM	Cc1nc2nc(N3C[C@@H](C4CC4)O[C@@H](c4cnn(C5CC5)c4)C3)nc(-c3ccc(F)cc3F)c2nc1C [Example I-1381]
500 to 3000 nM	Cc1nc2nc([C@@H]3CCO[C@@H](c4cnc(C5CC5)o4)C3)nc(-c3ccc(F)cc3F)c2nc1C (single isomer, unassigned) [Example I-1696]
< 50 nM	Cc1nc2nc(N3C[C@@H](C)O[C@@H](c4cnn(C5CC5)c4)C3)cc(-c3ccc(Cl)cc3F)c2nc1C [Example I-1076, (2S,6R)-4-[8-(4-chloro-2-fluoro-phenyl)-2,3-dimethyl-pyrido[2,3-b]pyrazin-6-yl]-2-(1-cyclopropylpyrazol-4-yl)-6-methyl-morpholine]
< 50 nM	CCCc1nc2nc(N3C[C@@H](C)O[C@@H](c4cnn(C5CC5)c4)C3)nc(-c3ccc(F)cc3F)c2nc1C (single isomer, unassigned) [Example I-1288]

SMILES	EC50
Cc1nc2nc(N3C[C@@H](C)O[C@@H](c4cnn(C5CC5)c4)C3)cc(C#CC3CC3)c2nc1C [Example I-1104, (2S,6R)-4-[8-(2-cyclopropylethynyl)-2,3-dimethyl-pyrido[2,3-b]pyrazin-6-yl]-2-(1-cyclopropylpyrazol-4-yl)-6-methyl-morpholine]	500 to 3000 nM
